Data as given in paper PMC9513756, “Establishing a UHPLC-MS/MS method for evaluation of the influence of stir-frying on the pharmacokinetics of seven compounds in Arctii Fructus” (RSC Advances, 2022).
Read-outs that look alike come from different tables or passages of the source.

Test: Pharmacokinetics of seven compounds in rat plasma after oral administration of RAF and SAF extracts (UHPLC-MS/MS)
Type: in vivo, male Sprague-Dawley rats
Details: for AUC(0-inf) / AUC(0-t) / Tmax / MRT inf / half-life: male, Sprague-Dawley, rat, plasma, po, 12 g/kg
[1] = oral RAF extract 12 g kg^−1, n = 6
[2] = oral RAF extract 12 g kg^−1, n = 6, read-out: Mean residence time (MRT(0–∞))
[3] = oral SAF extract 12 g kg^−1, n = 6
[4] = oral SAF extract 12 g kg^−1, n = 6, read-out: Mean residence time (MRT(0–∞))

Protocol: All the components were measured using a Shimadzu UHPLC system (Shimadzu, Japan), and a Triple Quadrupole 5500 LC-MS/MS system (AB Sciex, USA) in negative ion mode. […] The gradient program was: 5–28% B (0–3 min), 28% B (3–3.5 min), 28–38% B (3.5–4 min), 38% B (4–4.5 min), 38–100% B (4.5–6 min), 100–5% B (6–7 min). With a column temperature of 40 °C, the optimized key parameters including curtain gas, collision gas, ion spray voltage, and temperature were assigned values of 55 psi, 35 psi, 4500 V, and 550 °C, respectively.
The rat plasma sample (100 μL), IS (10 μL), and 2 M HCl (20 μL) were mixed and vortex mixed for 3 min. Subsequently, 1 mL of ethyl acetate–butyl alcohol (1 : 1) was spiked into the mixed solution, and then centrifuged for 5 min at 25 000 × g.[14] Next, the supernatant was transferred and evaporated with nitrogen gas. These residues were then re-dissolved in 100 μL of 60% methanol, with the final solutions being vortex mixed for 3 min, and then centrifuged for 10 min at 25 000 × g. Finally, the supernatant was injected into the UHPLC-MS/MS for extensive analysis.
Firstly, male Sprague-Dawley rats (200–220 g) in the animal laboratory at the Nanjing University of Chinese Medicine under the standard conditions (License number: SYXK(SU)-2007-0030) were fed. The rats were fed and provided with water for one week prior to the experimentation. Secondly, before the administration of the extracts, the rats were stopped from eating but were provided with water for 12 h prior to the test. […] Depending on the clinical dosage administered to the human body, the dosage of RAF and SAF comprised 12 g kg^−1 for oral administration. In addition, 500 μL blood samples (about 250 μL plasma) were collected in 1.5 mL heparinized polythene tubes at 0, 0.033, 0.083, 0.167, 0.33, 0.5, 0.75, 1, 2, 4, 6, 8, 12, 24, and 48 h via the postorbital venous plexus veins, after oral administration of the two extracts was observed. Finally, the collected plasma was centrifuged for 5 min at 25 000 × g and stored at −20 °C before the analysis. All the pharmacokinetic parameters were evaluated with the DAS 1.0 system (Medical College of Wannan, China). Furthermore, the maximum concentration of oral administration of AF (Cmax) and the time to reach Cmax (Tmax) were derived from the concentration–time profile. All the values were given as mean ± standard deviation.

| SMILES | AUC(0-inf) [1] | AUC(0-t) [1] | Tmax [1] | MRT inf [2] | AUC(0-inf) [3] | AUC(0-t) [3] | Tmax [3] | half-life [3] | MRT inf [4] | C (max) [1] | t 1/2 [1] | C (max) [3] | half-life [1] | Mean residence time (MRT(0–∞)) [1] | Mean residence time (MRT(0–∞)) [3] | t 1/2 [3] | shape of plasma concentration-time profile (oral RAF and SAF) | T max [1] | T max [3] |
| --- | --- | --- | --- | --- | --- | --- | --- | --- | --- | --- | --- | --- | --- | --- | --- | --- | --- | --- | --- |
| O=C(/C=C/c1ccc(O)c(O)c1)O[C@@H]1C[C@](O)(C(=O)O)C[C@@H](O)[C@H]1O [Chlorogenic acid, chlorogenic acid] | 1090 ± 588 ng·h/mL | 1070 ± 594 ng·h/mL | 0.875 ± 0.41 h | 3.72 ± 0.6 h | 937 ± 660 ng·h/mL | 695 ± 307 ng·h/mL | 0.111 ± 0.43 h | 4.37 ± 0.32 h | 5.09 ± 1.82 h | 348.5 ± 161.3 ng/mL | 2.175 ± 0.28 h | 303.7 ± 105.7 ng/mL |  |  |  |  |  |  |  |
| O=C(C=Cc1ccc(O)c(O)c1)OC1C(O)CC(O)(C(=O)O)CC1O (stereo not shown) [Cryptochlorogenic acid, cryptochlorogenic acid] | 196 ± 59.1 ng·h/mL | 152 ± 60.7 ng·h/mL | 0.431 ± 0.07 h | 19.9 ± 9.37 h | 280 ± 68 ng·h/mL | 218 ± 80.3 ng·h/mL | 0.103 ± 0.05 h | 13.5 ± 7.98 h | 16.9 ± 8.6 h | 34.80 ± 25.06 ng/mL |  | 116.16 ± 35.41 ng/mL | 12.6 ± 7.96 h |  |  |  |  |  |  |
| O=C(C=Cc1ccc(O)c(O)c1)OC1CC(O)(C(=O)O)CC(OC(=O)C=Cc2ccc(O)c(O)c2)C1O (stereo not shown) [Isochlorogenic acid A, isochlorogenic acid A] | 272 ± 169 ng·h/mL | 219 ± 110 ng·h/mL | 0.792 ± 0.09 h | 8.35 ± 2.91 h | 180 ± 63.6 ng·h/mL | 101 ± 73.1 ng·h/mL | 0.1 ± 0.07 h | 3.27 ± 1.26 h | 7.97 ± 5.12 h | 99.05 ± 37.81 ng/mL |  | 135.71 ± 25.50 ng/mL | 6.7 ± 3.61 h |  |  |  |  |  |  |
| O=C(C=Cc1ccc(O)c(O)c1)OC1CC(O)(C(=O)O)CC(O)C1OC(=O)C=Cc1ccc(O)c(O)c1 (stereo not shown) [Isochlorogenic acid C, isochlorogenic acid C] | 84.1 ± 46.3 ng·h/mL | 71.5 ± 33.2 ng·h/mL | 0.125 ± 0.05 h |  |  | 79.5 ± 25.1 ng·h/mL | 0.078 ± 0.03 h |  |  | 39.89 ± 17.30 ng/mL | 9.002 ± 5.89 h | 103.84 ± 47.62 ng/mL |  | 15.89 ± 11.25 h | 8.736 ± 5.55 h | 6.770 ± 4.30 h |  |  |  |
| COc1cc(C[C@H]2C(=O)OC[C@@H]2Cc2ccc(OC)c(OC)c2)ccc1O [Arctigenin, arctigenin] |  |  | 9 ± 2.45 h | 14.9 ± 0.99 h |  |  | 8.67 ± 3.72 h | 9.95 ± 4.46 h | 17.8 ± 6.08 h | 706.9 ± 148.9 ng/mL |  | 600.8 ± 158.3 ng/mL | 8.25 ± 1.09 h |  |  |  | double-peak phenomenon |  |  |
| O=C(C=Cc1ccc(O)c(O)c1)OC1CC(O)(C(=O)O)CC(O)C1OC(=O)C=Cc1ccc(O)c(O)c1 (stereo not shown) [Isochlorogenic acid B, isochlorogenic acid B] |  |  |  |  |  |  |  | 24.3 ± 11.5 h |  | 11.33 ± 8.68 ng/mL | 35.68 ± 18.24 h | 43.22 ± 26.80 ng/mL |  | 52.97 ± 27.74 h | 32.75 ± 15.17 h |  |  | 7.02 ± 4.2 min | 6.18 ± 3 min |
| COc1ccc(C[C@H]2COC(=O)[C@@H]2Cc2ccc(O[C@@H]3O[C@H](CO)[C@@H](O)[C@H](O)[C@H]3O)c(OC)c2)cc1OC [Arctiin, arctiin] | 1070 ± 417 ng·h/mL | 826 ± 216 ng·h/mL | 0.152 ± 0.09 h | 5.33 ± 2.99 h | 1970 ± 600 ng·h/mL | 943 ± 228 ng·h/mL | 0.072 ± 0.05 h | 3.83 ± 1.86 h | 8.98 ± 3.11 h | 1019.3 ± 605.9 ng/mL |  | 605.7 ± 389.5 ng/mL | 3 ± 1.42 h |  |  |  |  |  |  |
